Legend:
splenocytic CD8+ T cells = experiment: CFSE proliferation of CD8+ T cells after in vitro peptide restimulation; type: cell-based, mouse; settings: mice immunized s.c. twice with 50 µg peptide in IFA; splenocytes restimulated with 10 µg/mL peptide for 8 days
Protocol: (§1) To screen the immunodominance of epitopic peptide in the induction of RSV-F specific Th1/Th2 expression, HLA-A*0201 transgenic C57BL/6 mice were anesthetized with isoflurane and immunized with 1×10^7 pfu/50 µL of rAd-F0 or rAd-LacZ or 1×10^4 live RSV B1 via the intranasal (i.n.) route. Twenty days later, the mice were given booster immunization i.n. with the same dose. After 10 days of boost, mice were sacrificed and splenocytes were isolated for the cytokine ELISPOT assay. […] Mice body weight was monitored daily.
(§2) The splenocytes were isolated, labeled with 5-(6)-carboxyfluorescein diacetate succinimidyl ester (CFSE) (Sigma-Aldrich) and stimulated in vitro with 10 µg/mL of the synthetic peptides for 4 or 8 days. Proliferation of splenocytic CD4^+ and CD8^+ T cells was analyzed by flow cytometry (BD FACSCalibur) using PE-Cy5-labeled specific antibody against CD4 (eBioscience) or CD8 (eBioscience), respectively. Cell division index (CDI), a ratio of CFSE-diluted CD4^+ or CD8^+ T cells stimulated by peptide to CFSE-diluted unstimulated CD4^+ or CD8^+ T cells, was calculated as shown below; [drawing 1] […]
(§3) Figure 2 Epitope-specific CD4^+ and CD8^+ T-cell activation in peptide-immunized HLA-A*0201 transgenic mice. […] Proliferation of CD4^+ (A) or CD8^+ (B) lymphocytes in response to the different CD8 epitopes was analyzed by flow cytometry using anti-CD4 or CD8 antibodies conjugated with PE-Cy5. […]

[1] = test system: splenocytes from HLA-A*0201 transgenic C57BL/6 mice; experiment: IL-2 ELISPOT of splenocytes restimulated with peptide; type: cell-based, mouse; settings: for IL-2 ELISPOT, RSV: splenocytes of HLA-Tg B6 mice primed and boosted i.n. with 10^4 pfu RSV-B1; for IL-2 ELISPOT, RSV / IL-2 ELISPOT, rAd-F0: restimulated with 2 µg peptide, representative of two experiments, five mice per group; for IL-2 ELISPOT, rAd-F0: splenocytes of HLA-Tg B6 mice primed and boosted i.n. with 10^7 pfu rAd-F0
Protocol: (§4) To screen the immunodominance of epitopic peptide in the induction of RSV-F specific Th1/Th2 expression, HLA-A*0201 transgenic C57BL/6 mice were anesthetized with isoflurane and immunized with 1×10^7 pfu/50 µL of rAd-F0 or rAd-LacZ or 1×10^4 live RSV B1 via the intranasal (i.n.) route. Twenty days later, the mice were given booster immunization i.n. with the same dose. After 10 days of boost, mice were sacrificed and splenocytes were isolated for the cytokine ELISPOT assay. For peptide-based vaccination, transgenic mice were immunized subcutaneously (s.c.) with 50 µg of the individual synthetic peptides emulsified in 25 µL of incomplete Freund's adjuvant (IFA) (Sigma-Aldrich) and then boosted after 10 days s.c. with the same dose of the respective peptides mixed with IFA. Mice were sacrificed 7 days after the booster and splenocytes were isolated for in vitro peptide-restimulation. For challenge studies, 10^7 pfu of live RSV-B1 was administered i.n. seven days after the booster immunization with peptide vaccines. Mice were sacrificed on day 4 post-challenge and the lung tissues were collected and subjected to further analysis by flow cytometry, ELISA, CTL assay and immunohistochemistry. Mice body weight was monitored daily.
(§5) […] RBC-free splenocyte suspensions prepared from the individual mice were seeded in individual wells of 96-well filtration plates (Millipore) precoated with capturing monoclonal antibodies for murine IL-2, IL-4 or IFN-γ (0.5 µg/ well) (eBioscience) and blocked with conditioned medium (CM) for 1 hour at room temperature. The splenocytes were added with the individual RSV F 9-mer synthetic peptides (2 µg each) or GLC-9 dissolved in CM (100 µL). The splenocytes added with Con A (10 µg/mL) were used as positive control. Unstimulated splenocytes were used as negative control. The plates were kept in a 37°C incubator equilibrated with 5% CO2 for 48 hours. The individual wells of the ELISPOT plates were washed three times with washing buffer (0.05% tween20 in PBS, PBS-T), and then 0.2 µg of the corresponding biotinylated detection monoclonal antibodies specific for IL-2, IL-4 and IFN-γ were added to detect the respective cytokines. After 2 hours of incubation at room temperature, the plates were washed and 100 µl of streptavidin-alkaline phosphatase (1∶ 250 dilution) was added to the individual wells, and the plates were incubated at room temperature for 45 minutes. Finally, the plates were washed four times with the wash buffer, and 100 µl of AEC (3-amine-9-ethylcarbazole, Sigma-Aldrich) substrate was added to each well and allowed to react for 30 minutes at room temperature in the dark. The plates were then washed with water, air-dried overnight, and the spots per well were scored using the immunospot counting reader (C.T.L. IMMUNOSPOT, CELLULAR TECHNOLOGY LTD). Results were expressed as the number of cytokine-secreting cells per 5×10^5 splenocytes seeded in the initial culture.
(§6) Figure 1 Induction of IFN-γ and IL-2 in splenocytes from RSV F peptide immunized HLA-A*0201 transgenic mice upon secondary recall. Splenocytes harvested on day 30 from HLA-A-Tg B6 mice primed and boosted at 20 days interval intranasally with 10^7 pfu of rAd-F0 (□) or 10^4 pfu of RSV-B1 (▪)were restimulated with 2 µg of the individual RSV F peptide or 10 µg/ml Con A for 5 days in the presence of murine IL-2 . After stimulation, 5×10^5 splenocytes were seeded to anti-IFN-γ (A) or anti-IL-2 (B) capture antibody coated ELISPOT plates for 2 days for ELISPOT assay as described in Materials and Methods. Cytokine-positive immunospots were developed and the results are expressed as the number of immunospots +/−2 standard deviations for each experimental group. Data is representative of results derived from two independent experiments, each with five mice per group.

splenocytic CD4+ T cells = experiment: CFSE proliferation of CD4+ T cells after in vitro peptide restimulation; type: cell-based, mouse; settings: mice immunized s.c. twice with 50 µg peptide in IFA; splenocytes restimulated with 10 µg/mL peptide for 8 days
Protocol: as §1, §2, §3

HLA-A*0201 = biological target: T1, HLA-A*0201 (Homo sapiens, UniProt P04439, D140Y/D185E/D98H/E176V/E277Q/G131W/G231S/I119V/I121R/I166T/I218V/L300P/L318F/N151K/N90K/P208A/P217A/Q86G/Q94H/R138H/R169H/T345S); experiment: T2 cell-stabilization assay (T2-binding); settings: for T2-binding Ratio of MFI: T2 cells 5×10^5, peptide 50 µg/mL + β2-microglobulin 5 µg/mL, 28°C 16–18 h, then brefeldin A 10 µg/mL 37°C 3 h, FITC anti-HLA-A2, flow cytometry, MFI relative to negative control HCV C55-74 (set as 1)
T1 construct: Human T2 cells (purchased from the American Type Culture Collection, ATCC) (ATCC No. CRL-1992) expressing the HLA-A*0201 gene; endogenous in cells; host or cells: human T2 cells (ATCC CRL-1992)
Protocol: T2 cells (5×10^5) cultured in 96-well U-bottom plates were incubated with the individual 9-mer synthetic peptides (50 µg/mL) and β2-microglobulin (5 µg/mL; Sigma-Aldrich) at 28°C for 16–18 hours. Subsequently, brefeldin A (10 µg/mL) was added and the cells were incubated at 37°C for another 3 hours, then washed and stained with fluorescence isothiocyanate (FITC)-conjugated mouse anti-human HLA-A2 antibody (SeroTec). Peptide-loaded T2 cells were acquired and analyzed on the FACScan flow cytometer using CellQuest software (Becton Dickinson). GLC-9 peptide was used as positive control (PC). The mean fluorescence intensity (MFI) represents the binding affinity of each peptide compared to MFI (set as MFI = 1) obtained from negative control (NC), which is T2 cells loaded with HCV peptide C55-74.
Twenty-five 9-mer synthetic peptides derived from the RSV F glycoprotein sequence presumed to encompass HLA-A*0201 binding motifs were synthesized (Table 1). Each was tested for its ability to bind HLA-A*0201 molecules by T2 cell-based binding assay (data not shown). The relative mean fluorescence intensity (MFI) obtained from the positive control (PC) peptide derived from Epstein-Barr virus capsid protein (GLC-9, a previously defined HLA-A*0201-restricted CTL epitope) was twofold (MFI = 1.96) compared to the baseline MFI = 1 obtained from the negative control (NC) treated with an unrelated peptide HCV C55-74 (a C57BL/6-specific CD4 epitope). […] The remaining peptides had no detectable binding to the HLA-A*0201 molecules. Apparently, the different MFIs generated by binding of RSV F-derived peptides to HLA-A*0201 reflects on the binding specificity of different peptides to a given HLA molecule.

[2] = test system: splenocytes from HLA-A*0201 transgenic C57BL/6 mice; experiment: IFN-γ ELISPOT of splenocytes restimulated with peptide; type: cell-based, mouse; settings: for IFN-γ ELISPOT, RSV: splenocytes of HLA-Tg B6 mice primed and boosted i.n. with 10^4 pfu RSV-B1; for IFN-γ ELISPOT, RSV / IFN-γ ELISPOT, rAd-F0: restimulated with 2 µg peptide, representative of two experiments, five mice per group; for IFN-γ ELISPOT, rAd-F0: splenocytes of HLA-Tg B6 mice primed and boosted i.n. with 10^7 pfu rAd-F0; for IFN-γ level in restimulated splenocytes (ELISPOT, text grading): splenocytes of rAd-F0- or RSV B1-primed and boosted HLA-Tg B6 mice, high = over 100 spots, moderate = over 50 spots
Protocol: as §4, §5, §6

KIMTSKTDV [peptide 17, HLA-A*0201-restricted 9-mer synthetic peptide from F protein of RSV-B1 strain]
proliferation of CD8+ T cells (cell division index) (splenocytic CD8+ T cells): could not induce proliferation
IL-2 ELISPOT, RSV [1]: 6.5 cytokine-secreting cells per 5×10^5 splenocytes
IL-2 ELISPOT, rAd-F0 [1]: 24.5 cytokine-secreting cells per 5×10^5 splenocytes
proliferation of CD4+ T cells (cell division index) (splenocytic CD4+ T cells): insignificant proliferation
T2-binding Ratio of MFI (HLA-A*0201): 0.95
IFN-γ ELISPOT, RSV [2]: 2.5 cytokine-secreting cells per 5×10^5 splenocytes
IFN-γ ELISPOT, rAd-F0 [2]: 24.5 cytokine-secreting cells per 5×10^5 splenocytes

LLWVLLLWV [peptide 2, HLA-A*0201-restricted 9-mer synthetic peptide from F protein of RSV-B1 strain]
IL-2 ELISPOT, RSV [1]: 42 cytokine-secreting cells per 5×10^5 splenocytes
IL-2 ELISPOT, rAd-F0 [1]: 34.5 cytokine-secreting cells per 5×10^5 splenocytes
T2-binding Ratio of MFI (HLA-A*0201): 0.97
IFN-γ ELISPOT, RSV [2]: 46.5 cytokine-secreting cells per 5×10^5 splenocytes
IFN-γ ELISPOT, rAd-F0 [2]: 46.5 cytokine-secreting cells per 5×10^5 splenocytes
IFN-γ level in restimulated splenocytes (ELISPOT, text grading) [2]: over 50 spots

TLLLWVLLL [peptide 1, HLA-A*0201-restricted 9-mer synthetic peptide from F protein of RSV-B1 strain]
IL-2 ELISPOT, RSV [1]: 39.5 cytokine-secreting cells per 5×10^5 splenocytes
IL-2 ELISPOT, rAd-F0 [1]: 85.5 cytokine-secreting cells per 5×10^5 splenocytes
IL-2 level in restimulated splenocytes (ELISPOT, text grading) ([1]; splenocytes of rAd-F0- or RSV B1-primed and boosted HLA-Tg B6 mice, high = over 100 spots, moderate = over 50 spots): over 50 spots
binding affinity, MFI higher than the baseline (HLA-A*0201; T2 cell-based binding assay, baseline = negative control HCV C55-74, called modest binding affinity): ~10%
T2-binding Ratio of MFI (HLA-A*0201): 1.19
IFN-γ ELISPOT, RSV [2]: 69.5 cytokine-secreting cells per 5×10^5 splenocytes
IFN-γ ELISPOT, rAd-F0 [2]: 33.5 cytokine-secreting cells per 5×10^5 splenocytes
IFN-γ level in restimulated splenocytes (ELISPOT, text grading) [2]: over 50 spots
